Here are results for twelve molecules from patent EP0926242A1, “GLIOTOXIN DERIVATIVES AND ANTICANCER AGENT COMPRISING THE SAME” (priority 1996, dated 1998).

For assay [1], the system named is mouse leukemia cells P388. Briefly: Evaluation of cytotoxity of synthesized derivatives by the MTT method (Example 8). The class given is cell-based. As to conditions: for IC50: Mus musculus, read-out: P388 IC50[ng/mL]. Here is the method: (§1) Antitumor activity of the synthesized derivatives against various cancer cells was measured by the MTT method. The cancer cells used were mouse carcinoma of the colon cells colon 26 (Gan Kenkyu-sho, Gan Kenkyu-kai) and mouse leukemia cells P388 (Dai-Nippon Seiyaku), and the culture medium contained 10 % fetal calf serum. Each cells were placed in each well of 96 well microplate n an amount of […]/50 µL/well and 50 µL of a test compound aqueous solution in each concentration was added. After incubating at 37 °C for 3 days, the number of survival cells was measured by the MTT method, and a dose-reaction curve was made. Thereby, the concentration of each test compound inhibiting multiplication at a rate of 50 % (IC50) was calculated.

Assay [2] relates to mouse carcinoma of the colon cells colon 26. Described as above. The class given is cell-based. The following applies: for IC50: Mus musculus. The protocol: as §1
For assay [3] the test system is unchanged. The assay can be described thus: Anticancer effect in vivo against colon 26 (Example 9 A). The following applies: CDFI mice. Here is the method:
(§2) • (A) Evaluationin vivo using mouse carcinoma of the colon cells colon 26 CDFI mice (female : 4 weks age) were bought, and colon 26 subcultured in the subcutaneous tissue of the mouse was taken out, and cut into small pieces by a scissors. The cancer cells were transplanted into subcutaneous tisue of CDFI mice by a trucker. The day was assigned 0 day, and the tumor was measured by a slide caliper after 7 days. The volume of the tumor was calculated, and divided into groups (each group : n = 4). The text compound was dissolved in dimethylsulfoxide, and diluted with 5 % Tween 80- saline aqueous solution. […] The administration was carried out after 7 days, after 11 days and after 15 days or after 7 days and after 8 days from the transplantation at a rate of once per one day. 21st day from the transplantation, the volume of tumor was measured and the volume of tumor and the inhibition against tumor multiplication rate (I.R.) were calculated. The volume of tumor was calculated by the following formula. (Tumore Volume [mm)^3 (]= Minor Axis [mm])^2 × Major Axis [mm] × (1/2) [formula] • The inhibition against tumor multiplication rate (I.R.) was calculated by the following formula. I.R. [%] = {1- (Average Tumor Volume of Administration Group / Average Tumor Volume of Control Group)) × 100 [formula] • (B) Evaluation in vivo using human carcinoma of the colon cells HCT-116 Balb/c nu/nu mice (female : 5 weks age) were bought, and HCT-116 (Dainippon Seiyaku) subcultured in the subcutaneous tissue of the mouse was taken out, and cut into small pieces by a scissors. The cancer cells were transplanted into subcutaneous tissue of […] mice by a trucker. The day was assigned 0 day, and the tumor was measured by a slide caliper after 7 days. The volume of the tumor was calculated, and divided into groups (each group : n = 2). The text compound was dissolved in dimethylsulfoxide, and diluted with 5 % Tween 80- saline aqueous solution. […] The administration was carried out after 7 days, after 11 days and after 15 days from the transplantation at a rate of once per one day. 21st day from the transplantation, the volume of tumor was measured and the volume of tumor and the inhibition against tumor multiplication rate (I.R.) were calculated by the above formulas.

In assay [4] the test system is human carcinoma of the colon cells HCT-116. Briefly: Anticancer effect in vivo against HCT 116 (Example 9 B). Also on record: species or system mouse. As to conditions: 5 [mg/kg]×3 (i.p.), 7,11,15th days, Balb/c nu/nu mice. Here is the method: as §2
Assay [5] has as its system Human carcinoma of the colon cell strain HCT-116. The assay can be described thus: Tertiary culture using test human cancer, killed cells by MTT method. It counts as cell-based. The following applies: incubated 3 days. The protocol:
Tertiary cultures were carried out using a human carcinoma of the colon tissue in stage 2b. The tertiary cultures were carried out according to the reported method (Int.J.Cancer Res., 82, 607-612 (1991), Gan to Kagakuryoho, 18, 239-243 (1991), Gan to Kagakuryoho, 19, 743-748 (1992)). The extracted tissue of carninoma of the colon was cut into square pieces having a side of about 2 mm, and incubated in a RPMI- 1640 medium containing 10 % fetal calf serum under 5 % CO2 at 37 °C for 3 days. Existing anticancer agents or acetylgliotoxin were diluted and added, and further incubated for 3 days. Then, the rate of killed cells was determined by the MTT method. The tertiary cultures using the test human cancer were carried out as follows: Human carcinoma of the colon cell strain HCT-116 was transplanted into the subcutaneous tissue of a nude mouse (Balb nu/nu) to induce tumor. The cancer tissue was extracted from the tumor-induced portion, and cut into square pieces having a side of 2 mm. The evaluation of the existing anticancer agents and acetylyliotoxin was earried out according to the aforementioned method.

Where [6] appears, read: 72 h, colon 26, 3 days, MTT, read-out: colon 26 IC 50.
The mark [7] stands for this setting: 2.5[mg/kg]×3 (i.p.), 7,11,15th days.
Where [8] appears, read: 5 [mg/kg]×3 (i.p.), 7,11,15th days.
Setting [9] is: 10 [mg/kg]×2 (i.p.), 7,8th days.
[10] abbreviates: 10 [mg/kg]×2 (i.v.), 7, 14th days.

In brackets after ≈: the same amount, converted by molar mass. Read-outs that look alike come from different tables or passages of the source.

On to `CN1C(=O)[C@]23Cc4ccccc4N2C(=O)[C@]1(CO)SS3` [Compound of Example 3, (3S, 10aR)―2,3-dihydro―3―(hydroxymethyl)―2― methyl―10H―3,10a―epidithiopyrazino[1,2―a]indole― 1,4―dione], for which the IC50 in assay [1] (72 h, P388, 3 days, MTT) is 3.2 ng/mL (≈ 0.0104 µM); in assay [2] (setting [6]) it was 58 ng/mL (≈ 0.188 µM). For the same molecule, the “I.R. (21st day)” value in assay [3] (setting [7]) turned out to be 35.2%; in assay [3] (setting [8]), 43.7%. Further, the I.R.Max in assay [3] (setting [7]) came out at 35.3%; in assay [3] (setting [8]), 51.6%.

With `COC(=O)COc1cccc2c1N1C(=O)[C@]3(CO)SS[C@]1(C2)C(=O)N3C` [Compound of Example 7, (3S, 10aR)―2,3―dihydro―3― (hydroxymethyl)―6―[(methoxycarbonyl)methyloxy]―2― methyl―10H―3,10a―epidiopyrazino[1,2―a]indole―1,4― dione], in assay [2] (colon 26, 3 days, MTT), the “colon 26 IC 50” value was determined as 0.082 µg/mL.

In the case of `CC(=O)Oc1cccc2c1N1C(=O)[C@]3(CO)SS[C@]1(C2)C(=O)N3C` [Compound of Example 5, (3 S, 10aR)―6―acetoxy―2,3―dihydro―3―(hydroxymethyl)― 2―methyl―10H―3,10a―epidithiopyrazino[1,2―a]indole―1, 4―dione], the IC50 in assay [1] (72 h, P388, 3 days, MTT) turned out to be 13 ng/mL (≈ 0.0355 µM); in assay [2] (setting [6]), 74 ng/mL (≈ 0.202 µM).

Take `CN1C(=O)[C@]23Cc4cccc(O)c4N2C(=O)[C@]1(CO)SS3` [Compound of Example 4, (3S, 10aR)―2,3―dihydro―6―hydroxy―3―(hydroxymethyl)― 2―methyl―10H―3,10a―epidithiopyrazino[1,2―a]indole― 1,4―dione]: the IC50 amounted to 21 ng/mL (≈ 0.0647 µM) in assay [1] (P388, 72 h) and 110 ng/mL (≈ 0.339 µM) in assay [2] (Colon 26, 72 h, read-out: colon 26 IC 50 [ng/mL]). For the same molecule, the “I.R. (21st day)” value in assay [4] came to 63.8%; in assay [3] (setting [7]), 40.1%; in assay [3] (setting [8]) it was 52.9%; in assay [3] (setting [9]), 43.5%. In addition, the I.R.Max in assay [4] came out at 66.5%; in assay [3] (setting [7]), 54.5%; in assay [3] (setting [8]) it was 58.9%; in assay [3] (setting [9]) it was 79.8%.

As to `CO[C@@]12[C@H](COC(N)=O)C3=C(C(=O)C(C)=C(N)C3=O)N1C[C@@H]1N[C@@H]12` [M M C, Mitomycin C], the “I. R. (%)” value in assay [5] (conc. 15 ug/mL) is listed as 34%.

For the molecule `COc1cccc2c1C(=O)c1c(O)c3c(c(O)c1C2=O)C[C@@](O)(C(=O)CO)C[C@@H]3O[C@H]1C[C@H](N)[C@H](O)[C@H](C)O1` [Adriamycin, reference compound], the “I. R. (%)” value in assay [5] (conc. 6 ug/mL) was 0%. For the same molecule, in assay [3] (setting [10]), the “I.R. (21st day)” value is 38.9% and the I.R.Max was 38.9%.

On to `CC[C@]1(O)C[C@@H]2CN(CCc3c([nH]c4ccccc34)[C@@](C(=O)OC)(c3cc4c(cc3OC)N(C)[C@H]3[C@@](O)(C(=O)OC)[C@H](OC(C)=O)[C@]5(CC)C=CCN6CC[C@]43[C@@H]65)C2)C1` [Vinblastine], for which the “I. R. (%)” value in assay [5] (conc. 100 ug/mL) is recorded as 20%.

Turning to `[NH2][Pt]([NH2])([Cl])[Cl]` [CDDP, Cisplatin, reference compound], the “I. R. (%)” value in assay [5] (conc. 25 ug/mL) came to 6%. Besides, in assay [4], the “I.R. (21st day)” value is on record as 15.6% and the I.R.Max is on record as 47.5%.

In the case of `CN1C(=O)[C@]23Cc4cccc(OCC#N)c4N2C(=O)[C@]1(CO)SS3` [Compound of Example 6, (3S, 10aR)―6―(cyanomethoxy)―2,3―dihydro―3― (hydroxymethyl)―2―methyl―10H-3,10a―a― epidithiopyrazino[1,2―a]indole―1,4―dione], in assay [1] (P388, 3 days, MTT), the “P388 IC50[ng/mL]” value is 5.8 ng/mL. Further, the “colon 26 IC 50” value in assay [2] (colon 26, 3 days, MTT) was 0.07 µg/mL.

Consider `O=c1[nH]cc(F)c(=O)[nH]1` [5-F U, 5-Fluorouracil], for which the “I. R. (%)” value in assay [5] (conc. 500 ug/mL) is 38%.

In the case of `CC(=O)O[C@H]1C(=O)[C@@]2(C)[C@H]([C@H](OC(=O)c3ccccc3)[C@]3(O)C[C@H](OC(=O)[C@H](O)[C@@H](NC(=O)c4ccccc4)c4ccccc4)C(C)=C1C3(C)C)[C@]1(OC(C)=O)CO[C@@H]1C[C@@H]2O` [T A X O L, Taxol], the “I. R. (%)” value in assay [5] (conc. 100 ug/mL) amounted to 19%.

Turning to `CN1C(=O)[C@]23CC4=CC=C[C@H](O)[C@H]4N2C(=O)[C@@]1(CO)SS3` [Gliotoxin, gliotoxin], the “I. R. (%)” value is 28% in assay [5] (conc. 12.5 ug/mL) and 66% in assay [5] (conc. 25 ug/mL).
